Test results from the NIST ThermoML archive (doi:10.1016/j.jct.2014.05.014).
± gives the expanded uncertainty stated by the source.

Assay: refractive index (Na D-line) (dimensionless); cn = amount concentration of the nth substance listed, in mol/dm3
Conditions: 101.3 kPa, Liquid, Standard Abbe refractometry

CC(N)C(=O)[O-].[K+] (stereo not drawn) [potassium DL-alaninate] + O
refractive index
Conditions	303.15 K	308.15 K	313.15 K	318.15 K	323.15 K	328.15 K	333.15 K	338.15 K	343.15 K
c1 = 0.526	1.3409 ± 0.00033	1.34021 ± 0.00033	1.33947 ± 0.00033	1.33867 ± 0.00033	1.33782 ± 0.00033	1.33692 ± 0.00033	1.33599 ± 0.00033	1.335 ± 0.00033	1.33402 ± 0.00033
c1 = 1.009	1.34955 ± 0.00037	1.3488 ± 0.00037	1.34802 ± 0.00037	1.3472 ± 0.00037	1.34634 ± 0.00037	1.34542 ± 0.00037	1.34446 ± 0.00037	1.34349 ± 0.00037	1.34248 ± 0.00037
c1 = 1.501	1.35822 ± 0.00042	1.35743 ± 0.00042	1.35661 ± 0.00042	1.35576 ± 0.00042	1.35486 ± 0.00042	1.35394 ± 0.00042	1.35299 ± 0.00042	1.352 ± 0.00042	1.35098 ± 0.00042
c1 = 2.005	1.36647 ± 0.00048	1.36566 ± 0.00048	1.36481 ± 0.00048	1.36391 ± 0.00047	1.363 ± 0.00047	1.36206 ± 0.00047	1.3611 ± 0.00047	1.3601 ± 0.00047	1.3591 ± 0.00047
c1 = 2.501	1.37461 ± 0.00055	1.37375 ± 0.00055	1.37285 ± 0.00054	1.37195 ± 0.00054	1.37103 ± 0.00054	1.37004 ± 0.00054	1.36904 ± 0.00054	1.36803 ± 0.00054	1.36701 ± 0.00054
c1 = 2.986	1.38281 ± 0.0006	1.38192 ± 0.0006	1.38098 ± 0.0006	1.38002 ± 0.0006	1.37908 ± 0.0006	1.37809 ± 0.0006	1.3771 ± 0.00059	1.3761 ± 0.00059	1.37507 ± 0.00059
c1 = 3.498	1.39058 ± 0.00065	1.38964 ± 0.00065	1.3887 ± 0.00065	1.38775 ± 0.00065	1.38677 ± 0.00065	1.38576 ± 0.00064	1.38471 ± 0.00064	1.38364 ± 0.00064	1.38259 ± 0.00064

CC(N)C(=O)[O-].[Na+] (stereo not drawn) [sodium DL-alaninate] + O
refractive index
Conditions	303.15 K	308.15 K	313.15 K	318.15 K	323.15 K	328.15 K	333.15 K	338.15 K	343.15 K
c1 = 0.498	1.3409 ± 0.00033	1.34021 ± 0.00033	1.33945 ± 0.00033	1.33864 ± 0.00033	1.33778 ± 0.00033	1.33688 ± 0.00033	1.33592 ± 0.00033	1.3349 ± 0.00033	1.33388 ± 0.00033
c1 = 0.99	1.34952 ± 0.00037	1.34876 ± 0.00037	1.34796 ± 0.00037	1.34712 ± 0.00037	1.34624 ± 0.00037	1.34528 ± 0.00037	1.34432 ± 0.00037	1.34333 ± 0.00036	1.34232 ± 0.00036
c1 = 1.485	1.35799 ± 0.00042	1.35719 ± 0.00042	1.35636 ± 0.00041	1.35547 ± 0.00041	1.35455 ± 0.00041	1.35358 ± 0.00041	1.35259 ± 0.00041	1.35156 ± 0.00041	1.35053 ± 0.00041
c1 = 1.983	1.3663 ± 0.00047	1.36544 ± 0.00047	1.36454 ± 0.00047	1.36361 ± 0.00047	1.36264 ± 0.00047	1.36164 ± 0.00047	1.36061 ± 0.00047	1.35958 ± 0.00046	1.35853 ± 0.00046
c1 = 2.476	1.37433 ± 0.00053	1.37341 ± 0.00053	1.37246 ± 0.00053	1.37149 ± 0.00053	1.37049 ± 0.00052	1.36949 ± 0.00052	1.36845 ± 0.00052	1.36735 ± 0.00052	1.36627 ± 0.00052
c1 = 3.063	1.38382 ± 0.00061	1.38284 ± 0.00061	1.3818 ± 0.00061	1.38074 ± 0.0006	1.3797 ± 0.0006	1.37866 ± 0.0006	1.37755 ± 0.0006	1.37643 ± 0.0006	1.37534 ± 0.00059
